{"source": "patent US20130164336A1", "about": "“ANTIMICROBIAL AND ANTI-INFLAMMATORY ACTION PHARMACEUTICAL COMPOSITION FOR PARENTERAL ADMINISTRATION AND ITS PRODUCTION PROCESS” (priority 2010, published 2013)", "type_in_all_cases": "in vivo", "key": {"Staphylococcus aureus": {"system": "Staphylococcus aureus", "test": "Anti-inflammatory action: peripheral blood leukocytes of mice surviving to day 7 after sepsis induction", "conditions": "mice infected with Staphylococcus aureus surviving to day 7, median, low and high quartiles", "procedure": "(§1) The mice have been injected 0.8 ml of Pseudomonas aeruginosa daily culture suspension with a dosage 5×10^8 CFU/mouse or Staphylococcus aureus daily culture suspension with a dosage 10^10 CFU/mouse or Escherichia coli daily culture suspension with a dosage 8×10^8 CFU/mouse. […] In a day after being infected the test mice have been daily (during 3 days) intravenous injected with 100 mg/kg of antibiotics or different pharmaceutical compositions (antibiotic/BHSiO2) watered down with 0.25 ml of normal saline solution.\n(§2) It is known that in case of sepsis the quantity of peripheral blood leucocytes can determine the activity of the inflammatory process.\n(§3) We have studied the leukocytes quantity of the mice that have survived until the day 7 after sepsis induction, according to the method described above."}, "Pseudomonas aeruginosa": {"system": "Pseudomonas aeruginosa", "test": "Anti-inflammatory action: peripheral blood leukocytes of mice surviving to day 7 after sepsis induction", "conditions": "mice infected with Pseudomonas aeruginosa surviving to day 7, median, low and high quartiles", "procedure": "as §1, §2, §3"}, "[1]": {"system": "Escherichia coli (ATCC No 25922 F-50)", "test": "Experimental sepsis model in mice, survival on the 7th day", "conditions": "E. coli 8×10^8 CFU/mouse", "source_text": "(§4) To determine therapeutic efficiency of fosfamicin and their pharmaceutical compositions including BHSiO2, we used experimental sepsis models and a statistical processing methos of the received data (χ^2) according to [29, 30].\n(§5) Microorganisms: Staphylococcus aureus (ATCC No 25923 F-49), Escherichia coli (ATCC No 25922 F-50), Pseudomonas aeruginosa (ATCC N227853 F-51).\n(§6) Animals: for the experiments we used hybrid mice (CBA×C57Black/6)CBF1 according to the “Regulations for test animals use” (USSR Ministry of health order supplement No 755 from 12.08. 1977).\n(§7) The mice have been injected 0.8 ml of Pseudomonas aeruginosa daily culture suspension with a dosage 5×10^8 CFU/mouse or Staphylococcus aureus daily culture suspension with a dosage 10^10 CFU/mouse or Escherichia coli daily culture suspension with a dosage 8×10^8 CFU/mouse. The control group has been injected with 0.8 ml of normal saline solution (0.9% sodium chloride solution). In a day after being infected the test mice have been daily (during 3 days) intravenous injected with 100 mg/kg of antibiotics or different pharmaceutical compositions (antibiotic/BHSiO2) watered down with 0.25 ml of normal saline solution. The control group of mice has been injected using the same scheme with normal saline solution […].\n(§8) Antimicrobial therapy efficiency has been estimated basing on the q-ty of the living mice on the 7th day of the experiment.\n(§9) The obtained data stated in Table No 2 reflect the results of 3 independent experiments conducted for each test group."}, "[2]": {"system": "Pseudomonas aeruginosa (ATCC N227853 F-51)", "test": "Experimental sepsis model in mice, survival on the 7th day", "conditions": "P. aeruginosa 5×10^8 CFU/mouse", "source_text": "as §4, §5, §6, §7, §8, §9"}, "[3]": {"system": "Staphylococcus aureus (ATCC No 25923 F-49)", "test": "Experimental sepsis model in mice, survival on the 7th day", "conditions": "S. aureus 10^10 CFU/mouse", "source_text": "as §4, §5, §6, §7, §8, §9"}, "[4]": {"conditions": "100 mg/kg intravenous daily for 3 days"}, "[5]": {"conditions": "100 mg/kg intravenous daily for 3 days from a day after infection"}}}
{"smiles": "C[C@@H]1O[C@@H]1P(=O)(O)O", "note": "[Fosfomycin, fosfomycin]", "values": [{"measurement": "Leukocytes quantity Me(LQ-HQ)", "setting": "Staphylococcus aureus", "result": "17.38 (15.5-21.5) × 10^9/l"}, {"measurement": "Leukocytes quantity Me(LQ-HQ)", "setting": "Pseudomonas aeruginosa", "result": "17.13 (16.0-18.63) × 10^9/l"}, {"measurement": "Mice survival on the 7th day, survived/infected animals (absolute values)", "setting": "[1]; [4]", "result": "(14/30)"}, {"measurement": "Mice survival rate on the 7th day of infection", "setting": "[1]; [5]", "result": 46.6, "unit": "%"}, {"measurement": "Mice survival on the 7th day, survived/infected animals (absolute values)", "setting": "[2]; [4]", "result": "(10/31)"}, {"measurement": "Mice survival rate on the 7th day of infection", "setting": "[2]; [5]", "result": 32.2, "unit": "%"}, {"measurement": "Mice survival on the 7th day, survived/infected animals (absolute values)", "setting": "[3]; [4]", "result": "(12/30)"}, {"measurement": "Mice survival rate on the 7th day of infection", "setting": "[3]; [5]", "result": 40, "unit": "%"}]}
